The values that follow come from patent publication EP0416609A2, “Benzo[b]thiophene-containing lipoxygenase-inhibiting compounds” (ABBOTT LABORATORIES, priority 1989, dated 1991).

This test addresses T1, 5-lipoxygenase (Rattus norvegicus, UniProt P12527).
T1 construct: containing the 20,000xg supernatant from 6x10⁴ homogenized RBL-1 cells; endogenous in cells; host or cells: RBL-1 cells (20,000xg supernatant of homogenate)
T1 sequence (P12527 1-673): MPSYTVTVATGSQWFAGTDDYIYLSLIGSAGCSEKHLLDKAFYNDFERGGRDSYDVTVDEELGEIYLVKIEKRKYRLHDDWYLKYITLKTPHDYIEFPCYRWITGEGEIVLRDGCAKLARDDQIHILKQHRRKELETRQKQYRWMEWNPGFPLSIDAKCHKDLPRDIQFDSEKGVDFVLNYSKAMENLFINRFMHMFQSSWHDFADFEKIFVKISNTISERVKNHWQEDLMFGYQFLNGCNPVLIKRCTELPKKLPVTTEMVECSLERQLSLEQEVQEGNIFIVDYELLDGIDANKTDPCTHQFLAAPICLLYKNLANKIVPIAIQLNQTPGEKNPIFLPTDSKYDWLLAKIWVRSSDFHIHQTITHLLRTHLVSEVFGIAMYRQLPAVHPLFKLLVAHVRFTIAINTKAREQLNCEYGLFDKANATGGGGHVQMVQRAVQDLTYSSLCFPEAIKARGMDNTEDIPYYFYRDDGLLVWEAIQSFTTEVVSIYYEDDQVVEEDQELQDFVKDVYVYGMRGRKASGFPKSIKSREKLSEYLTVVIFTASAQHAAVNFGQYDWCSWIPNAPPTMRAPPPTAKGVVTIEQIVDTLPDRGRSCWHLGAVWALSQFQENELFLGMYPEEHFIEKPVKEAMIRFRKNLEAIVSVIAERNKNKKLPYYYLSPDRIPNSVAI
Put plainly: Lipoxygenase IC50 determination (20,000xg supernatant from homogenized RBL-1 cells, radiolabelled arachidonic acid). It counts as biochemical. The following applies: 20,000xg supernatant from 6x10⁴ homogenized RBL-1 cells, 2% DMSO vehicle, triplicate incubations; read-out: IC₅₀. As for the experimental part:
Lipoxygenase IC₅₀ Determination
Reactions were initiated by addition of radiolabelled arachidonic acid and terminated by acidification and ether extraction. Reaction products were separated from nonconverted substrate by thin layer chromatography and measured by liquid scintillation spectroscopy. All treatments were evaluated in triplicate incubations. […] ICso values and 95% confidence limits were computed by linear regression analysis of percentage inhibition versus log inhibitor concentration plots.
`COC(=O)ON(C(N)=O)C(C)c1cc2ccccc2s1` (stereo not shown) [Example 5, N-methoxycarbonyloxy-N-[1-(benzol[b]thien-2-yl)ethyl]urea]: the IC50 is 1200 nM.
In the case of `CC(=O)ON(C(N)=O)C(C)c1cc2ccccc2s1` (stereo not shown) [Example 3, N-acetoxy-N-[1-(benzol[b]thien-2-yl)ethyl]urea] it was 2100 nM; in that of `CC(=O)NC(=O)N(O)C(C)c1cc2ccccc2s1` (stereo not shown) [Example 10, N′-acetyl-N-hydroxy-N-[1-(benzo[b]thien-2-yl)ethyl]urea;], 1500 nM; in that of `CC(c1cc2ccccc2s1)N(O)C(=O)NC(N)=O` (stereo not shown) [Example 11], 1000 nM.
Regarding `CC(=O)N(O)C(C)c1cc2ccccc2s1` (stereo not shown) [Example 1, N-hydroxy-N-(1-benzol[b]thien-2-ylethyl)acetamide], the IC50 was 1100 nM.
Turning to `CCOC(=O)ON(C(N)=O)C(C)c1cc2ccccc2s1` (stereo not shown) [Example 4, N-ethoxycarbonyloxvyN-[1-(benzo[b]thien-2-yl)ethyl]urea], the IC50 worked out at 1500 nM.
On to `CC(c1cc2ccccc2s1)N(OC(=O)CCC(=O)O)C(N)=O` (stereo not shown) [Example 9, N-succinyloxy-N-[1-(benzo[b]thien-2-yl)ethyl]urea], for which the IC50 turned out to be 600 nM.
